From patent US10543249B2, “Pharmaceutical composition for a sustained release of lanreotide” (IPSEN PHARMA S.A.S., priority 2013, dated 2020)

Experiment: Solubility of lanreotide acetate
Format: physicochemical
Text: The term “co-solvent” as used in the present application refers to a solvent or a mixture of solvents which allows the incorporation of the active ingredient in the composition to obtain the required dose in a suitable volume and matching the injectability criteria.
A composition according to the present invention comprises a co-solvent which allows obtaining the required injectability criteria of the pharmaceutical compositions. The co-solvent used in the composition according to the present invention is hydrosoluble. Moreover, the solubility, in the hydrosoluble co-solvent, of lanreotide or its salts used according to the present invention is equal or higher than 8% (w/v) at room temperature. For comparison, the solubility of lanreotide acetate is less than 4% in water, aqueous acetic acid (at the concentration of 0.1 or 1 mol/mL), aqueous NaCl (0.9%), or polysorbate (0.01%).

Measured: solubility of lanreotide acetate

CC(C)[C@@H]1NC(=O)[C@H](CCCCN)NC(=O)[C@@H](Cc2c[nH]c3ccccc23)NC(=O)[C@H](Cc2ccc(O)cc2)NC(=O)[C@@H](NC(=O)[C@H](N)Cc2ccc3ccccc3c2)CSSC[C@@H](C(=O)N[C@H](C(N)=O)[C@@H](C)O)NC1=O [lanreotide acetate]
less than 4%: in aqueous NaCl (0.9%) | in aqueous acetic acid (at the concentration of 0.1 or 1 mol/mL) | in polysorbate (0.01%) | in water
